Source: the NIST ThermoML archive (doi:10.1021/acs.jced.8b00192)
± gives the expanded uncertainty stated by the source.

Key:
[1] = Crystal; DTA
[2] = Molar enthalpy of transition or fusion; conditions: Crystal; DSC

Normal melting temperature [1] | Molar enthalpy of transition or fusion [2] | SMILES
76.53 ± 1.1 °C | 3.86 ± 0.21 kcal/mol | CC(=O)c1cccc([N+](=O)[O-])c1 [1-(3-nitrophenyl)ethanone]
81.00 ± 1.1 °C | 5.72 ± 0.225 kcal/mol | CC(=O)c1ccc([N+](=O)[O-])cc1 [1-(4-nitrophenyl)ethanone]
